Experimental data reported in PMC9322451 (Clinical Pharmacology in Drug Development, 2022).
Like-named read-outs stand apart in the source and are kept apart here.

Assay: Phase 1 part A: PK after single and multiple once-daily oral doses
Type: in vivo, human
Conditions: for Dose-normalized AUClast / Dose-normalized AUCτ / Dose-normalized AUC∞ / Dose-normalized Cmax: geometric least squares mean; for concentration at 30 day / Tmax / half-life / AUC / AUC(0-inf) / AUC(0-t) / Cmax: human, plasma
Method: The study was conducted sequentially in 2 parts. […] Eligible participants were admitted to the clinical unit for single‐dose evaluation from days −2 to 2 and from days 29 to 31 for steady‐state PK and safety evaluation. Participants self‐administered daily doses after an overnight fast of at least 10 hours on days 4 to 30, with outpatient visits on days 3, 4, 7, 14, 21, 32, 33, and 61 (Figure S1).
For part A, blood samples for PK assessments were collected following administration on days 1 and 30 at 0 (predose), 0.5, 0.75, 1, 1.5, 2, 3, 4, 8, 12, 24, 48, and 72 hours after dosing. In addition, predose PK samples were collected on days 4, 7, 14, and 21. PK parameters following single and multiple once‐daily dosing were evaluated using noncompartmental analysis, including the AUC over a dosing interval (AUCτ), AUC from time 0 to the last time with quantifiable concentration (AUClast), AUC from time 0 to infinite time (AUC∞), maximum plasma concentration (Cmax), minimum plasma concentration, time to maximum plasma concentration (tmax), terminal elimination half‐life (t1/2), apparent total drug clearance following oral administration (CL/F), and predose concentration.
All statistical analyses were performed using SAS version 9.3 or higher (SAS Institute Inc., Cary, North Carolina). Analysis of PK data was performed using WinNonlin Professional Software version 8.0 or higher (Certara, LP, Princeton, New Jersey). […] Categorical data were summarized by race and treatment group in terms of number of participants with data at relevant time points, frequency counts, and percentages. PK concentrations below the limit of quantification (BLQ) at time 0 on days 1 and 30 were considered 0. Postdose BLQ data were considered missing for PK parameter calculation. For mean concentrations and graphic presentation, all BLQ data were imputed as 0.

[1] = Multiple dosing (Day 30), Japanese n = 23, 3 dose groups pooled
[2] = Multiple dosing (Day 30), White n = 24, 3 dose groups pooled
[3] = Single dose (Day 1), Japanese n = 25, 3 dose groups pooled
[4] = Single dose (Day 1), White n = 24, 3 dose groups pooled
[5] = po, 10 mg, Day 1, 10 mg, Japanese, mean (CV%)
[6] = po, 10 mg, Day 1, 10 mg, White, mean (CV%)
[7] = po, 10 mg, Day 30, 10 mg once daily, Japanese, mean (CV%)
[8] = po, 10 mg, Day 30, 10 mg once daily, White, mean (CV%)
[9] = po, 25 mg, Day 1, 25 mg, Japanese, mean (CV%)
[10] = po, 25 mg, Day 1, 25 mg, White, mean (CV%)
[11] = po, 25 mg, Day 30, 25 mg once daily, Japanese, mean (CV%)
[12] = po, 25 mg, Day 30, 25 mg once daily, White, mean (CV%)
[13] = po, 40 mg, Day 1, 40 mg, Japanese, mean (CV%)
[14] = po, 40 mg, Day 1, 40 mg, White, mean (CV%)
[15] = po, 40 mg, Day 30, 40 mg once daily, Japanese, mean (CV%)
[16] = po, 40 mg, Day 30, 40 mg once daily, White, mean (CV%)

Cn1c(=O)oc2ccc(-c3ccc(C[C@@H](C#N)NC(=O)[C@@H]4CNCCCO4)cc3)cc21 [Brensocatib]
Mean steady‐state CL/F (10 mg, Japanese): 10.1 L/h | Mean steady‐state CL/F (10 mg, White): 8.5 L/h | Mean steady‐state CL/F (25 mg, Japanese): 6.4 L/h | Mean steady‐state CL/F (25 mg, White): 7.0 L/h | Mean steady‐state CL/F (40 mg, White): 6.5 L/h | Ctrough (Day 30, 10 mg once daily, Japanese, mean (CV%)): 15.64 (48.2) ng/mL | Ctrough (Day 30, 10 mg once daily, White, mean (CV%)): 31.65 (52.6) ng/mL | Ctrough (Day 30, 25 mg once daily, Japanese, mean (CV%)): 93.05 (72.3) ng/mL | Ctrough (Day 30, 25 mg once daily, White, mean (CV%)): 83.24 (48.2) ng/mL | Ctrough (Day 30, 40 mg once daily, Japanese, mean (CV%)): 81.86 (101.6) ng/mL | Ctrough (Day 30, 40 mg once daily, White, mean (CV%)): 92.95 (90) ng/mL | Dose-normalized AUClast [1]: 172.9 (ng ‧ h/mL)/mg | Dose-normalized AUCτ [1]: 107.6 (ng ‧ h/mL)/mg | Dose-normalized AUC∞ [1]: 194.9 (ng ‧ h/mL)/mg | Dose-normalized Cmax [1]: 8.5 (ng/mL)/mg | Dose-normalized AUClast [2]: 243.8 (ng ‧ h/mL)/mg | Dose-normalized AUCτ [2]: 144.8 (ng ‧ h/mL)/mg | Dose-normalized AUC∞ [2]: 285.4 (ng ‧ h/mL)/mg | Dose-normalized Cmax [2]: 10.6 (ng/mL)/mg | Dose-normalized AUClast [3]: 94.0 (ng ‧ h/mL)/mg | Dose-normalized AUCτ [3]: 62.5 (ng ‧ h/mL)/mg | Dose-normalized AUC∞ [3]: 103.9 (ng ‧ h/mL)/mg | Dose-normalized Cmax [3]: 6.1 (ng/mL)/mg | Dose-normalized AUClast [4]: 118.8 (ng ‧ h/mL)/mg | Dose-normalized AUCτ [4]: 75.4 (ng ‧ h/mL)/mg | Dose-normalized AUC∞ [4]: 133.9 (ng ‧ h/mL)/mg | Dose-normalized Cmax [4]: 6.9 (ng/mL)/mg | concentration at 30 day (oral, 10 mg, Day 30, 10 mg once daily, Japanese, mean (CV%), read-out: Cavg): 43.8 ng/mL | concentration at 30 day (oral, 10 mg, Day 30, 10 mg once daily, Japanese, mean (CV%), read-out: Cmin): 19.6 ng/mL | concentration at 30 day (oral, 10 mg, Day 30, 10 mg once daily, White, mean (CV%), read-out: Cavg): 49.4 ng/mL | concentration at 30 day (oral, 10 mg, Day 30, 10 mg once daily, White, mean (CV%), read-out: Cmin): 26.3 ng/mL | concentration at 30 day (oral, 25 mg, Day 30, 25 mg once daily, Japanese, mean (CV%), read-out: Cavg): 174 ng/mL | concentration at 30 day (oral, 25 mg, Day 30, 25 mg once daily, Japanese, mean (CV%), read-out: Cmin): 98.8 ng/mL | concentration at 30 day (oral, 25 mg, Day 30, 25 mg once daily, White, mean (CV%), read-out: Cavg): 161 ng/mL | concentration at 30 day (oral, 25 mg, Day 30, 25 mg once daily, White, mean (CV%), read-out: Cmin): 93.9 ng/mL | concentration at 30 day (oral, 40 mg, Day 30, 40 mg once daily, Japanese, mean (CV%), read-out: Cavg): 167 ng/mL | concentration at 30 day (oral, 40 mg, Day 30, 40 mg once daily, Japanese, mean (CV%), read-out: Cmin): 77.5 ng/mL | concentration at 30 day (oral, 40 mg, Day 30, 40 mg once daily, White, mean (CV%), read-out: Cavg): 269 ng/mL | concentration at 30 day (oral, 40 mg, Day 30, 40 mg once daily, White, mean (CV%), read-out: Cmin): 149 ng/mL | Tmax (oral, once‐daily administration, steady state, range over groups, read-out: Tmax): 1 to 1.8 h | half-life (oral, once‐daily administration, steady state, range over groups, read-out: elimination t1/2): 1300 to 1660 min | half-life (oral, range over groups (abstract), read-out: Elimination half‐life): 1320 to 1680 min | half-life (oral, single dose, Japanese participants, range over dose groups, read-out: Elimination t1/2): 1100 to 1340 min | half-life (oral, single dose, White participants, range over dose groups, read-out: Elimination t1/2): 1290 to 1470 min | Tmax (oral, single‐dose administration, range over groups, read-out: median tmax): 1 to 1.5 h | half-life (oral, steady state, Japanese participants, across the 3 dose groups, read-out: mean t1/2): 1300 to 1390 min | half-life (oral, steady state, White participants, across the 3 dose groups, read-out: mean t1/2): 1370 to 1660 min | AUC [5]: 628 ng·h/mL | AUC(0-inf) [5]: 1030 ng·h/mL | AUC(0-t) [5]: 943 ng·h/mL | Cmax [5]: 64.5 ng/mL | half-life (po, 10 mg, Day 1, 10 mg, Japanese, mean (CV%), read-out: t1/2 (converted)): 1130 min | Tmax (po, 10 mg, Day 1, 10 mg, Japanese, median (range), read-out: Tmax): 1.02 h | AUC [6]: 620 ng·h/mL | AUC(0-inf) [6]: 1140 ng·h/mL | AUC(0-t) [6]: 988 ng·h/mL | Cmax [6]: 55.9 ng/mL | half-life (po, 10 mg, Day 1, 10 mg, White, mean (CV%), read-out: t1/2 (converted)): 1540 min | Tmax (po, 10 mg, Day 1, 10 mg, White, median (range), read-out: Tmax): 1.01 h | AUC [7]: 1050 ng·h/mL | AUC(0-inf) [7]: 1980 ng·h/mL | AUC(0-t) [7]: 1730 ng·h/mL | Cmax [7]: 80.5 ng/mL | half-life (po, 10 mg, Day 30, 10 mg once daily, Japanese, mean (CV%), read-out: t1/2 (converted)): 1350 min | Tmax (po, 10 mg, Day 30, 10 mg once daily, Japanese, median (range), read-out: Tmax): 1.26 h | AUC [8]: 1180 ng·h/mL | AUC(0-inf) [8]: 2540 ng·h/mL | AUC(0-t) [8]: 2100 ng·h/mL | Cmax [8]: 89.5 ng/mL | half-life (po, 10 mg, Day 30, 10 mg once daily, White, mean (CV%), read-out: t1/2 (converted)): 1690 min | Tmax (po, 10 mg, Day 30, 10 mg once daily, White, median (range), read-out: Tmax): 1.02 h | AUC [9]: 2010 ng·h/mL | AUC(0-inf) [9]: 3390 ng·h/mL | AUC(0-t) [9]: 3040 ng·h/mL | Cmax [9]: 209 ng/mL | half-life (po, 25 mg, Day 1, 25 mg, Japanese, mean (CV%), read-out: t1/2 (converted)): 1300 min | Tmax (po, 25 mg, Day 1, 25 mg, Japanese, median (range), read-out: Tmax): 1.5 h | AUC [10]: 1720 ng·h/mL | AUC(0-inf) [10]: 3200 ng·h/mL | AUC(0-t) [10]: 2810 ng·h/mL | Cmax [10]: 161 ng/mL | half-life (po, 25 mg, Day 1, 25 mg, White, mean (CV%), read-out: t1/2 (converted)): 1470 min | Tmax (po, 25 mg, Day 1, 25 mg, White, median (range), read-out: Tmax): 1.35 h | AUC [11]: 4170 ng·h/mL | AUC(0-inf) [11]: 7890 ng·h/mL | AUC(0-t) [11]: 6890 ng·h/mL | Cmax [11]: 301 ng/mL | half-life (po, 25 mg, Day 30, 25 mg once daily, Japanese, mean (CV%), read-out: t1/2 (converted)): 1400 min | Tmax (po, 25 mg, Day 30, 25 mg once daily, Japanese, median (range), read-out: Tmax): 1.75 h | AUC [12]: 3870 ng·h/mL | AUC(0-inf) [12]: 8160 ng·h/mL | AUC(0-t) [12]: 6720 ng·h/mL | Cmax [12]: 265 ng/mL | half-life (po, 25 mg, Day 30, 25 mg once daily, White, mean (CV%), read-out: t1/2 (converted)): 1720 min | Tmax (po, 25 mg, Day 30, 25 mg once daily, White, median (range), read-out: Tmax): 1.02 h | AUC [13]: 2660 ng·h/mL | AUC(0-inf) [13]: 4580 ng·h/mL | AUC(0-t) [13]: 4040 ng·h/mL | Cmax [13]: 245 ng/mL | half-life (po, 40 mg, Day 1, 40 mg, Japanese, mean (CV%), read-out: t1/2 (converted)): 1390 min | Tmax (po, 40 mg, Day 1, 40 mg, Japanese, median (range), read-out: Tmax): 1.5 h | AUC [14]: 3420 ng·h/mL | AUC(0-inf) [14]: 5930 ng·h/mL | AUC(0-t) [14]: 5300 ng·h/mL | Cmax [14]: 328 ng/mL | half-life (po, 40 mg, Day 1, 40 mg, White, mean (CV%), read-out: t1/2 (converted)): 1330 min | Tmax (po, 40 mg, Day 1, 40 mg, White, median (range), read-out: Tmax): 1.27 h | AUC [15]: 4010 ng·h/mL | AUC(0-inf) [15]: 7110 ng·h/mL | AUC(0-t) [15]: 6400 ng·h/mL | Cmax [15]: 334 ng/mL | half-life (po, 40 mg, Day 30, 40 mg once daily, Japanese, mean (CV%), read-out: t1/2 (converted)): 1310 min | Tmax (po, 40 mg, Day 30, 40 mg once daily, Japanese, median (range), read-out: Tmax): 1.03 h | AUC [16]: 6470 ng·h/mL | AUC(0-inf) [16]: 12200 ng·h/mL | AUC(0-t) [16]: 10600 ng·h/mL | Cmax [16]: 467 ng/mL | half-life (po, 40 mg, Day 30, 40 mg once daily, White, mean (CV%), read-out: t1/2 (converted)): 1420 min | Tmax (po, 40 mg, Day 30, 40 mg once daily, White, median (range), read-out: Tmax): 1.49 h | accumulation in maximum plasma concentration and AUC at steady state (once-daily dosing): ≈ 2 fold | Dose‐normalized Cmax lower in Japanese than in White participants (pooled dose groups): 19.1% | dose‐normalized AUCs lower in Japanese than in White participants (pooled dose groups): ≈ 25.6%
